Values of other authors in PMC11478287, “Design and Synthesis of Pyridyl and 2-Hydroxyphenyl Chalcones with Antitubercular Activity” (Molecules, 2024).

System: PtpA
Set-up: method as in PMID 18930396
Conditions: cited from earlier work

Question: With `COc1cc(C(=O)/C=C/c2ccc3c(c2)OCO3)cc(OC)c1OC` [Compound 2] as the compound, how does the “PtpA inhibition activity (in words)” value read?
Answer: very low PtpA inhibition activity
